These are literature values, as cited in patent CN102028697A, “含非离子表面活性剂的拉坦前列素滴眼液及制备方法” (SHANGHAI SINE PHARMACEUTICAL CO Ltd, priority 2009, dated 2011).

For data set [1] the following is noted: in water.

Turning to `CC(C)OC(=O)CCC/C=C\C[C@@H]1[C@@H](CC[C@@H](O)CCc2ccccc2)[C@H](O)C[C@@H]1O` [拉坦前列素], the “permissible time at 40℃” value is at most 8 days. Besides, in data set [1], the solubility entry was “几乎不溶”.
